According to patent US8952024B2, “Herbicidal pyrimidone derivatives” (E I du Pont de Nemours and Company, priority 2009, dated 2015):

Key:
Test in all cases: Test C plant response
Assay type in all cases: in vivo
[1] = system: bluegrass (annual bluegrass, Poa annua); conditions: Preemergence, scale 0 to 100
[2] = system: spring barley (Hordeum vulgare); conditions: Preemergence, scale 0 to 100
[3] = system: bluegrass (annual bluegrass, Poa annua); conditions: Postemergence, scale 0 to 100
Excerpt: (§1) Seeds of plant species selected from bluegrass (annual bluegrass, Poa annua), blackgrass (Alopecurus myosuroides), canarygrass (Phalaris minor), chickweed (common chickweed, Stellaria media), galium (catchweed bedstraw, Galium aparine), bromegrass (downy bromegrass, Bromus tectorum), field poppy (Papaver rhoeas), field violet (Viola arvensis), green foxtail (Setaria viridis), deadnettle (henbit deadnettle, Lamium amplexicaule), Italian ryegrass (Lolium multiflorum), kochia (Kochia scoparia), lambsquarters (Chenopodium album), oilseed rape (Brassica napus), pigweed (Amaranthus retroflexus), Russian thistle (Salsola iberica), spring barley (Hordeum vulgare), spring wheat (Triticum aestivum), buckwheat (wild buckwheat, Polygonum convolvulus), wild mustard (Sinapis arvensis), wild oat (Avena fatua), wild radish (Raphanus raphanistrum), windgrass (Apera spica-venti), winter barley (Hordeum vulgare), and winter wheat (Triticum aestivum) were planted and treated postemergence with test chemicals formulated in a non-phytotoxic solvent mixture which included a surfactant. Plants ranged in height from 2 to 18 cm (1- to 4-leaf stage).
(§2) Treated plants and controls were maintained in a controlled growth environment for 14 days after which time all test plants were visually evaluated and compared to controls. Plant response ratings, summarized in Table C, are based on a scale of 0 to 100 where 0 is no effect and 100 is complete control. A dash (-) response means no test result.

[4] = system: green foxtail (Setaria viridis); conditions: Postemergence, scale 0 to 100
Excerpt: as §1, §2

[5] = system: winter barley (Hordeum vulgare); conditions: Postemergence, scale 0 to 100
Excerpt: as §1, §2

[6] = system: buckwheat (wild buckwheat, Polygonum convolvulus); conditions: Postemergence, scale 0 to 100
Excerpt: as §1, §2

[7] = system: pigweed (Amaranthus retroflexus); conditions: Postemergence, scale 0 to 100
Excerpt: as §1, §2

[8] = system: lambsquarters (Chenopodium album); conditions: Postemergence, scale 0 to 100
Excerpt: as §1, §2

[9] = system: field violet (Viola arvensis); conditions: Postemergence, scale 0 to 100
Excerpt: as §1, §2

[10] = system: wild mustard (Sinapis arvensis); conditions: Postemergence, scale 0 to 100
Excerpt: as §1, §2

[11] = system: spring barley (Hordeum vulgare); conditions: Postemergence, scale 0 to 100
Excerpt: as §1, §2

[12] = system: Russian thistle (Salsola iberica); conditions: Postemergence, scale 0 to 100
Excerpt: as §1, §2

wild oat (Avena fatua) = conditions: Postemergence, scale 0 to 100
Excerpt: as §1, §2

[13] = system: blackgrass (Alopecurus myosuroides); conditions: Postemergence, scale 0 to 100
Excerpt: as §1, §2

[14] = system: spring wheat (Triticum aestivum); conditions: Postemergence, scale 0 to 100
Excerpt: as §1, §2

[15] = system: galium (catchweed bedstraw, Galium aparine); conditions: Postemergence, scale 0 to 100
Excerpt: as §1, §2

[16] = system: bromegrass (downy bromegrass, Bromus tectorum); conditions: Postemergence, scale 0 to 100
Excerpt: as §1, §2

[17] = system: Italian ryegrass (Lolium multiflorum); conditions: Postemergence, scale 0 to 100
Excerpt: as §1, §2

[18] = system: windgrass (Apera spica-venti); conditions: Postemergence, scale 0 to 100
Excerpt: as §1, §2

[19] = system: spring wheat (Triticum aestivum); conditions: Preemergence, scale 0 to 100
[20] = system: deadnettle (henbit deadnettle, Lamium amplexicaule); conditions: Preemergence, scale 0 to 100
[21] = system: Italian ryegrass (Lolium multiflorum); conditions: Preemergence, scale 0 to 100
[22] = system: winter barley (Hordeum vulgare); conditions: Preemergence, scale 0 to 100

O=C1CCCC(O)=C1C(=O)c1cnc(-c2ccccc2)n(-c2ccccc2)c1=O [Compound 2, 5-[(2-hydroxy-6-oxo-1-cyclohexen-1-yl)carbonyl]-2,3-diphenyl-4(3H)-pyrimidinone]
Plant response rating: Bluegrass ([1]; 62 g ai/ha): 0
Plant response rating: Bluegrass ([1]; 125 g ai/ha): 0
Plant response rating: Bluegrass ([1]; 16 g ai/ha): 0
Plant response rating: Bluegrass ([1]; 31 g ai/ha): 0
Plant response rating: Barley, Spring ([2]; 62 g ai/ha): 0
Plant response rating: Barley, Spring ([2]; 125 g ai/ha): 0
Plant response rating: Barley, Spring ([2]; 16 g ai/ha): 0
Plant response rating: Barley, Spring ([2]; 31 g ai/ha): 0
Plant response rating: Bluegrass ([3]; 16 g ai/ha): 0
Plant response rating: Bluegrass ([3]; 31 g ai/ha): 25
Plant response rating: Bluegrass ([3]; 62 g ai/ha): 25
Plant response rating: Bluegrass ([3]; 125 g ai/ha): 65
Plant response rating: Foxtail, Green ([4]; 16 g ai/ha): 65
Plant response rating: Foxtail, Green ([4]; 31 g ai/ha): 75
Plant response rating: Foxtail, Green ([4]; 62 g ai/ha): 95
Plant response rating: Foxtail, Green ([4]; 125 g ai/ha): 95
Plant response rating: Barley, Winter ([5]; 16 g ai/ha): 0
Plant response rating: Barley, Winter ([5]; 31 g ai/ha): 0
Plant response rating: Barley, Winter ([5]; 62 g ai/ha): 10
Plant response rating: Barley, Winter ([5]; 125 g ai/ha): 30
Plant response rating: Buckwheat, Wild ([6]; 16 g ai/ha): 15
Plant response rating: Buckwheat, Wild ([6]; 31 g ai/ha): 20
Plant response rating: Buckwheat, Wild ([6]; 62 g ai/ha): 40
Plant response rating: Buckwheat, Wild ([6]; 125 g ai/ha): 70
Plant response rating: Pigweed ([7]; 16 g ai/ha): 35
Plant response rating: Pigweed ([7]; 31 g ai/ha): 40
Plant response rating: Pigweed ([7]; 62 g ai/ha): 75
Plant response rating: Pigweed ([7]; 125 g ai/ha): 90
Plant response rating: Lambsquarters ([8]; 16 g ai/ha): 70
Plant response rating: Lambsquarters ([8]; 31 g ai/ha): 75
Plant response rating: Lambsquarters ([8]; 62 g ai/ha): 80
Plant response rating: Lambsquarters ([8]; 125 g ai/ha): 98
Plant response rating: Field Violet ([9]; 16 g ai/ha): 0
Plant response rating: Field Violet ([9]; 31 g ai/ha): 40
Plant response rating: Field Violet ([9]; 62 g ai/ha): 40
Plant response rating: Field Violet ([9]; 125 g ai/ha): 50
Plant response rating: Mustard, Wild ([10]; 16 g ai/ha): 98
Plant response rating: Mustard, Wild ([10]; 31 g ai/ha): 98
Plant response rating: Mustard, Wild ([10]; 62 g ai/ha): 98
Plant response rating: Barley, Spring ([11]; 16 g ai/ha): 0
Plant response rating: Barley, Spring ([11]; 31 g ai/ha): 0
Plant response rating: Barley, Spring ([11]; 62 g ai/ha): 0
Plant response rating: Barley, Spring ([11]; 125 g ai/ha): 0
Plant response rating: Russian Thistle ([12]; 16 g ai/ha): 35
Plant response rating: Russian Thistle ([12]; 31 g ai/ha): 60
Plant response rating: Russian Thistle ([12]; 62 g ai/ha): 70
Plant response rating: Russian Thistle ([12]; 125 g ai/ha): 95
Plant response rating: Oat, Wild (wild oat (Avena fatua); 16 g ai/ha): 0
Plant response rating: Oat, Wild (wild oat (Avena fatua); 31 g ai/ha): 15
Plant response rating: Oat, Wild (wild oat (Avena fatua); 62 g ai/ha): 25
Plant response rating: Oat, Wild (wild oat (Avena fatua); 125 g ai/ha): 25
Plant response rating: Blackgrass ([13]; 16 g ai/ha): 0
Plant response rating: Blackgrass ([13]; 31 g ai/ha): 0
Plant response rating: Blackgrass ([13]; 62 g ai/ha): 20
Plant response rating: Blackgrass ([13]; 125 g ai/ha): 30
Plant response rating: Wheat, Spring ([14]; 16 g ai/ha): 0
Plant response rating: Wheat, Spring ([14]; 31 g ai/ha): 0
Plant response rating: Wheat, Spring ([14]; 62 g ai/ha): 0
Plant response rating: Wheat, Spring ([14]; 125 g ai/ha): 0
Plant response rating: Galium ([15]; 16 g ai/ha): 5
Plant response rating: Galium ([15]; 31 g ai/ha): 30
Plant response rating: Galium ([15]; 62 g ai/ha): 50
Plant response rating: Galium ([15]; 125 g ai/ha): 70
Plant response rating: Bromegrass, Downy ([16]; 16 g ai/ha): 10
Plant response rating: Bromegrass, Downy ([16]; 31 g ai/ha): 20
Plant response rating: Bromegrass, Downy ([16]; 62 g ai/ha): 30
Plant response rating: Bromegrass, Downy ([16]; 125 g ai/ha): 50
Plant response rating: Ryegrass, Italian ([17]; 16 g ai/ha): 0
Plant response rating: Ryegrass, Italian ([17]; 31 g ai/ha): 0
Plant response rating: Ryegrass, Italian ([17]; 62 g ai/ha): 15
Plant response rating: Ryegrass, Italian ([17]; 125 g ai/ha): 30
Plant response rating: Windgrass ([18]; 16 g ai/ha): 5
Plant response rating: Windgrass ([18]; 31 g ai/ha): 20
Plant response rating: Windgrass ([18]; 62 g ai/ha): 25
Plant response rating: Windgrass ([18]; 125 g ai/ha): 40
Plant response rating: Wheat, Spring ([19]; 62 g ai/ha): 0
Plant response rating: Wheat, Spring ([19]; 125 g ai/ha): 0
Plant response rating: Wheat, Spring ([19]; 16 g ai/ha): 0
Plant response rating: Wheat, Spring ([19]; 31 g ai/ha): 0
Plant response rating: Deadnettle ([20]; 62 g ai/ha): 95
Plant response rating: Deadnettle ([20]; 125 g ai/ha): 98
Plant response rating: Deadnettle ([20]; 16 g ai/ha): 0
Plant response rating: Deadnettle ([20]; 31 g ai/ha): 75
Plant response rating: Ryegrass, Italian ([21]; 62 g ai/ha): 0
Plant response rating: Ryegrass, Italian ([21]; 125 g ai/ha): 0
Plant response rating: Ryegrass, Italian ([21]; 16 g ai/ha): 0
Plant response rating: Ryegrass, Italian ([21]; 31 g ai/ha): 0
Plant response rating: Barley, Winter ([22]; 62 g ai/ha): 0
Plant response rating: Barley, Winter ([22]; 125 g ai/ha): 0
Plant response rating: Barley, Winter ([22]; 16 g ai/ha): 0
Plant response rating: Barley, Winter ([22]; 31 g ai/ha): 0
